Assay results published in the Biogen ADME set (Fang et al. 2023).
Values after ≈ are worked out from the molar mass of the structure shown.

Conditions: for aqueous solubility: pH 6.8

Row | SMILES | MDR1-MDCK efflux ratio | intrinsic clearance, human liver microsomes | intrinsic clearance, rat liver microsomes | aqueous solubility | fraction unbound, human plasma | fraction unbound, rat plasma
1 | O=C(O)c1ccccc1-c1ccc(CN2CCCCC2)cc1 | 4.17 | ≤ 4.74 mL/min/kg | 54.3 mL/min/kg | 91.9 µg/mL (≈ 311 µM) | – | –
2 | C#CCNC(=O)N(Cc1ccccc1F)C1CCOCC1 | 2.15 | ≤ 4.74 mL/min/kg | 35.5 mL/min/kg | – | – | –
3 | CO[C@H]1CC[C@@H](C(=O)c2ccc3nc4c(cc3c2)CCCO4)CC1 | 0.805 | 29.4 mL/min/kg | 552 mL/min/kg | 44.5 µg/mL (≈ 137 µM) | – | –
4 | O=C(C(c1ccccc1)c1ccccc1)N1CCOCC(Cc2ccc3cnccc3c2)C1 (stereo not given) | 1.97 | 404 mL/min/kg | 653 mL/min/kg | 35.3 µg/mL (≈ 80.9 µM) | – | –
5 | CN(CC1CCCC1)C(=O)Nc1ccccc1N1CCOC1=O | 5.03 | 44.9 mL/min/kg | 541 mL/min/kg | 50.6 µg/mL (≈ 159 µM) | – | –
6 | CCOC(=O)N1CCC(Nc2nc3ccccc3s2)CC1 | 0.812 | 8.22 mL/min/kg | 294 mL/min/kg | 49.2 µg/mL (≈ 161 µM) | – | –
7 | CN(Cc1cnccn1)Cc1nc(N)c2ccccc2n1 | – | 15 mL/min/kg | 458 mL/min/kg | – | – | –
8 | CNC(=O)c1sc2ncccc2c1[C@H]1CC[C@H](CNC(=O)COc2ccccc2)CC1 | 31 | 103 mL/min/kg | 1070 mL/min/kg | 91.2 µg/mL (≈ 208 µM) | – | –
9 | CN(Cc1cnn(C)c1)c1ncnc2c1oc1ccccc12 | 0.969 | 19.7 mL/min/kg | 505 mL/min/kg | 42.5 µg/mL (≈ 145 µM) | – | –
10 | O=C(c1cc(F)ccc1F)N1CCN(C(=O)C2CC2)CC1 | 1.21 | ≤ 4.74 mL/min/kg | 19.8 mL/min/kg | – | – | –
11 | Cc1[nH]nc(CCC(=O)NCCCOC2CCCCC2)c1C | 18.2 | 63.5 mL/min/kg | 4360 mL/min/kg | – | – | –
12 | Cc1cccc(NC(=O)CN(C)c2ncccc2F)n1 | 0.657 | 16.2 mL/min/kg | 404 mL/min/kg | 36.8 µg/mL (≈ 134 µM) | – | –
13 | COc1cc(CCNC(=O)c2nc3cccc(C)n3c2F)cc(OC)c1 | – | 81.6 mL/min/kg | 821 mL/min/kg | 39.5 µg/mL (≈ 111 µM) | – | –
14 | COc1ccc(F)cc1-c1ccc(-c2nnco2)cc1 | – | 23.8 mL/min/kg | 333 mL/min/kg | – | – | –
15 | CN(C)Cc1ccnc(NC(=O)c2ccsc2)c1 | – | 6.67 mL/min/kg | 397 mL/min/kg | – | – | –
16 | O=C(CSCCc1ccncc1)Nc1ccccc1 | 0.805 | 19.6 mL/min/kg | 429 mL/min/kg | – | – | –
17 | O=C(NC1CCCCCC1)c1ccc(CSc2nc3ccccc3[nH]2)cc1 | 2.99 | 161 mL/min/kg | 1900 mL/min/kg | 2.71 µg/mL (≈ 7.14 µM) | – | –
18 | O=c1c2oc3ccccc3c2ncn1Cc1ccc(Cl)cc1 | 0.573 | 103 mL/min/kg | 906 mL/min/kg | – | – | –
19 | CNc1cc(CC2CCNCC2)ncn1 | – | – | – | 30.6 µg/mL (≈ 148 µM) | – | –
20 | COc1ccccc1/C=C/CN1CCCC2(C1)OCCO2 | 0.549 | 17.7 mL/min/kg | 2180 mL/min/kg | – | – | –
21 | c1ccc(C2(CNc3nc4ccccc4o3)CCOCC2)cc1 | – | 129 mL/min/kg | 3400 mL/min/kg | – | – | –
22 | Nc1ncnc2c1c(-c1ccc(Oc3ccccc3)cc1)nn2[C@@H]1CCCNC1 | 21 | 35 mL/min/kg | 103 mL/min/kg | 40 µg/mL (≈ 103 µM) | 0.0905 | 0.0702
23 | O[C@@H]1C[C@@H](c2nc(-c3cccnc3)no2)N(CCCc2ccccc2)C1 | 1.19 | 108 mL/min/kg | 1900 mL/min/kg | 45.6 µg/mL (≈ 130 µM) | – | –
24 | NCCC(=O)Nc1ccc2[nH]c(=O)[nH]c2c1 | – | – | – | 143 µg/mL (≈ 648 µM) | – | –
25 | CN1CCc2nc(NC(=O)c3cncn3-c3ccccc3)sc2C1 | 20.3 | 5.11 mL/min/kg | 63.6 mL/min/kg | 43.4 µg/mL (≈ 128 µM) | – | –
26 | CCCc1nc(N2CCc3ccccc3C2)ncc1C(=O)O | 0.725 | ≤ 4.74 mL/min/kg | 39.3 mL/min/kg | 51.4 µg/mL (≈ 173 µM) | – | –
27 | CCNC(=O)c1noc(-c2cc(C(C)C)c(O)cc2O)c1-c1ccc(CN2CCOCC2)cc1 | – | 38.8 mL/min/kg | 351 mL/min/kg | – | – | –
28 | Cc1cc(CNc2ncc(C(F)(F)F)cc2Cl)no1 | 0.601 | 64.6 mL/min/kg | 128 mL/min/kg | 26.8 µg/mL (≈ 92 µM) | – | –
29 | COc1ccc2c(c1)C=C(CN1CCC(c3cc(-c4ccc(N)nc4)cc(C)n3)CC1)CO2 | 0.999 | 43.4 mL/min/kg | 169 mL/min/kg | 22.9 µg/mL (≈ 51.8 µM) | – | –
